Assay [1] addresses T1, Type-1 angiotensin II receptor (Bos taurus, UniProt P25104).
T1 sequence (P25104 whole entry): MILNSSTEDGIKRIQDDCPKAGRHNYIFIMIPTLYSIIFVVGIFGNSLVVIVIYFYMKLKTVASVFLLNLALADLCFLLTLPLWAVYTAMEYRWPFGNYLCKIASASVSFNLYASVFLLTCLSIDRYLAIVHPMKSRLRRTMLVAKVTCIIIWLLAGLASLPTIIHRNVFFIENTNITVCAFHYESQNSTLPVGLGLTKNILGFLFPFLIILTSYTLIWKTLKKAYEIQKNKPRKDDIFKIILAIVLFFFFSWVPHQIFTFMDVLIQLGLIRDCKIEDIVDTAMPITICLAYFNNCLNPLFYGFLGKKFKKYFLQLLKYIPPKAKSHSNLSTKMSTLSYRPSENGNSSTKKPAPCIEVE
Description: Inhibition of [125I]AII binding to angiotensin II receptor of bovine adrenal cortex. It counts as tissue-based. As to conditions: read-out: EC50 (the source's name).

In assay [2] the target is Angiotensin II receptor (Homo sapiens) (UniProt P30556+P50052). Description: In vitro functional antagonistic affinity measured against angiotensin II receptor in paired rings of rabbit aorta. As to conditions: Oryctolagus cuniculus, target entry is the homologue from another species. It counts as tissue-based.
The subject of assay [3] is Rattus norvegicus. Briefly: In vivo potency determined as dose given iv to produce reduction in angiotensin II pressor response in normotensive rats. The following applies: read-out: ID50 (the source's name). Type of assay: functional.
Assay [4] relates to Rattus norvegicus. Description: Tested for in vitro inhibition of specific binding of [125I]AII for bolus injection of 0.3 mg/kg lasting up to 90 min post dose. It counts as functional. The following applies: 1.5 h.

The results in this text go back to ChEMBL document CHEMBL1127230, “New non-peptide angiotensin II receptor antagonists. 2: structure - activity relationship of a series of annelated 2(1H)-pyridinones” (Bioorg Med Chem Lett, 1994).

As usually defined, the pKB is the negative decadic logarithm of the KB, by convention in mol/L. Low readings indicate a high KB, high ones a low KB. Turning to `CCOc1ccc2c(O)c(-c3ccccc3)c(=O)n(Cc3ccc(-c4ccccc4C(=O)O)cc3)c2c1`, the IC50 in assay [1] stood at 1800 nM. For the same compound, the pKB in assay [2] came to 7.7.
In turn, `CCCc1cc2c(ncn2C)c(=O)n1Cc1ccc(-c2ccccc2-c2nn[nH]n2)cc1` returned a pKB in assay [2] of 7.6.
Turning to `O=c1c(-c2ccccc2)c(O)c2sccc2n1Cc1ccc(-c2ccccc2-c2nn[nH]n2)cc1`, in assay [1], the IC50 is 6000 nM. This compound came in with a pKB in assay [2] of 7.4. In the assay on Rattus norvegicus [3], the ED50 was 3.2 mg/kg.
With `Cc1ccc2c(O)c(-c3ccccc3)c(=O)n(Cc3ccc(-c4ccccc4-c4nn[nH]n4)cc3)c2n1`, the pKB in assay [2] is 7.
For `CS(=O)(=O)c1ccc2c(O)c(-c3ccccc3)c(=O)n(Cc3ccc(-c4ccccc4-c4nn[nH]n4)cc3)c2c1`, in assay [1], the IC50 was approximately 30000 nM. The compound further came in with a pKB in assay [2] of 5.9.
In assay [2], `COc1ccc2c(O)cc(=O)n(Cc3ccc(-c4ccccc4-c4nn[nH]n4)cc3)c2c1` had a pKB of 8.3. Besides, the ED50 with Rattus norvegicus [3] is 1.08 mg/kg.
Turning to `CCOc1ccc2c(O)c(-c3ccccc3)c(=O)n(Cc3ccc(-c4ccccc4-c4nn[nH]n4)cc3)c2c1`, the pKB in assay [2] came to 7.1. Besides, the ED50 in the assay with Rattus norvegicus [3] is 1.3 mg/kg.
For `CCCc1cc2nc(O)nc-2c(O)n1Cc1ccc(-c2ccccc2-c2nn[nH]n2)cc1`, in assay [2], the pKB is 6.4.
Same read-out and setting: as for `CCc1ccc2c(O)c(-c3ccccc3)c(=O)n(Cc3ccc(-c4ccccc4C(=O)O)cc3)c2c1`, the figure is 7.2.
A word on the inhibition in vivo: it is how much of the control response was suppressed. The compound `CCCc1cc2ncn(C)c2c(=O)n1Cc1ccc(-c2ccccc2-c2nn[nH]n2)cc1` yielded an inhibition in vivo at 0.3 mg/kg with Rattus norvegicus [4] of more than 50%. Further, the negative-log KB (pKB) in assay [2] worked out at 10.2. Moreover, the ED50 in the assay with Rattus norvegicus [3] is less than 0.3 mg/kg.
Turning to `COc1ccc2c(O)c(-c3ccccc3)c(=O)n(Cc3ccc(-c4ccccc4-c4nnn[nH]4)cc3)c2c1`, in assay [1], the IC50 is 2200 nM.
`COc1ccc2c(O)cc(=O)n(Cc3ccc(-c4ccccc4C(=O)O)cc3)c2c1`: the pKB in assay [2] was 6.3.
As for `CSc1ccc2c(O)c(-c3ccccc3)c(=O)n(Cc3ccc(-c4ccccc4-c4nn[nH]n4)cc3)c2c1`, the IC50 in assay [1] was determined as 600 nM. The compound also displayed a pKB in assay [2] of 6.6.
`COc1ccc2c(O)c(-c3ccccc3)c(=O)n(Cc3ccc(-c4ccccc4-c4nn[nH]n4)cc3)c2c1` yielded a pKB in assay [2] of 7.4. Besides, in the assay on Rattus norvegicus [3], the ED50 stood at 2.5 mg/kg.
In the case of `Cc1ccc2c(O)c(-c3ccccc3)c(=O)n(Cc3ccc(-c4ccccc4-c4nnn[nH]4)cc3)c2n1`, the IC50 in assay [1] was 1250 nM.
Same read-out and setting: as for `O=c1c(-c2ccccc2)c(O)c2c(n1Cc1ccc(-c3ccccc3-c3nnn[nH]3)cc1)CCC2`, the figure is 1250 nM.
In the case of `O=c1c(Cc2ccccc2)c(O)c2ccccc2n1Cc1ccc(-c2ccccc2-c2nn[nH]n2)cc1`, the pKB in assay [2] amounted to 7.5.
Turning to `CCc1cc2c(O)cc(=O)n(Cc3ccc(-c4ccccc4-c4nn[nH]n4)cc3)c2s1`, the pKB in assay [2] is 9.6.
On the same count and under the same terms, as for `O=c1c(-c2ccccc2)c(O)c2c(n1Cc1ccc(-c3ccccc3-c3nn[nH]n3)cc1)CCC2`, the figure is 7.2.
Regarding `COc1ccc2c(O)c(-c3ccccc3)c(=O)n(Cc3ccc(-c4ccccc4C(=O)O)cc3)c2c1`, in assay [1], the IC50 was 9500 nM. The pKB in assay [2] amounted to 6.7.
For `CCOc1ccc2c(O)c(-c3ccccc3)c(=O)n(Cc3ccc(-c4ccccc4-c4nnn[nH]4)cc3)c2c1`, the IC50 in assay [1] came out at 500 nM.
As for `CCOc1ccc2c(O)c(Cc3ccccc3)c(=O)n(Cc3ccc(-c4ccccc4C(=O)O)cc3)c2c1`, in assay [2], the pKB is 7.8.
As to `COc1ccc2c(O)c(C(C)=O)c(=O)n(Cc3ccc(-c4ccccc4C(=O)O)cc3)c2c1`, the pKB in assay [2] worked out at 6.6.
On to `CCc1cc2c(O)c(-c3ccccc3)c(=O)n(Cc3ccc(-c4ccccc4-c4nn[nH]n4)cc3)c2s1`, for which the IC50 in assay [1] amounted to 90 nM. Moreover, the ED50 in the assay with Rattus norvegicus [3] was 5 mg/kg.
For `O=c1c(-c2ccccc2)c(O)c2ccccc2n1Cc1ccc(-c2ccccc2-c2nn[nH]n2)cc1`, in assay [1], the IC50 came out at 1700 nM. This compound had a pKB in assay [2] of 7.2. Also, the ED50 in the assay with Rattus norvegicus [3] came to 1.2 mg/kg.
`O=c1c(-c2ccccc2)c(O)c2ccc([N+](=O)[O-])cc2n1Cc1ccc(-c2ccccc2-c2nn[nH]n2)cc1` returned a pKB in assay [2] of 7.5.
The same measure, in the same setting: as for `CCCCc1nc(Cl)c(CO)n1Cc1ccc(-c2ccccc2C(=O)O)cc1`, the figure is 7.1; as for `CCOc1ccc2c(O)cc(=O)n(Cc3ccc(-c4ccccc4-c4nn[nH]n4)cc3)c2c1`, 8.9; as for `CCCCc1c(O)c2ccc(OC)cc2n(Cc2ccc(-c3ccccc3C(=O)O)cc2)c1=O`, 6.6.
With `CCCc1cc2ncnc-2c(O)n1Cc1ccc(-c2ccccc2-c2nn[nH]n2)cc1`, the pKB in assay [2] came out at 9.1. In the assay with Rattus norvegicus [3], the ED50 was found to be 0.18 mg/kg.
Taken in the same sequence, the figures for `CCCCc1nc(Cl)c(CO)n1Cc1ccc(-c2ccccc2-c2nnn[nH]2)cc1` [LOSARTAN] were 8.3 and 1.2 mg/kg.
